Experiments:
CD-1 mice [1] = assay: Nociceptive pain: acute pain induced by acid solution, von Frey mechanical hyperalgesia test; type: in vivo
Procedure: Anthra[2,1-c][1,2,5]thiadiazole-6,11-dione (NSC745885, B1) was intraplantarly injected into the right hind paws of 8 to 12-week-old CD-1 mice. 5 minutes after the injection, 25 μL of pH 5.0 acid solution was intraplantarly injected into each of the mice. About 60 minutes later, the mice were directly tested with the hypersensitivity to mechanical stimuli using von Frey filaments (Touch-Test North Coast Medical, Inc., Margan Hill, Calif.). The control group was conducted under the same conditions except it was treated with a compound-free saline. […]
(§1) 2.2 μg/kg of the compound was administered to the mice by intraplantar injection about 5 minutes prior to the injection of the acid solution. An hour after the injection of the acid, the hypersensitivity of the mice to mechanical stimuli was measured using von Frey filaments (Touch-Test North Coast Medical, Inc., Margan Hill, Calif.). […] 60 minutes after the mice were administered with the compound, the mechanical hyperalgesia was assessed through the measurement of paw withdrawal frequencies by a sequential series of von Frey filaments of weights 0.6, 1.0, 1.4, 2.0 and 4.0 g applied perpendicularly to the plantar surface of the paw. […] The occurrence of paw withdrawal resulting from the stimulation or removing the stimulation for each trial was quantified as a percentage response frequency for each monofilament. […]

CD-1 mice [2] = assay: Neuropathic pain: chronic constriction injury (CCI) of the sciatic nerve, von Frey mechanical hyperalgesia test; type: in vivo
Text: The assessment of the effectiveness of the compound for alleviating neuropathic pain used the animal model of chronic constriction injury (CCI) of the sciatic nerve, which was established by Bennett and Xie (1988). After the surgery, the mice developed long-lasting hypersensitivity to mechanical stimuli (chronic mechanical hyperalgesia) even being lightly touched. The mechanical hyperalgesia test was used to evaluate the analgesic effect of the compound.
The mice, after a week following the ligation surgery, were intraplantarly injected with a series of different dosages of the compound, 0.22, 2.2, 22 μg/kg or the mice were injected with 2.2 μg/kg of compound intrathecally, or with 44 μg/kg of the compound intraperitoneally. The hypersensitivity to mechanical stimuli was measured using von Frey filaments at 60 minutes after the injection. The mice injected with saline following surgery were the control group and the other mice injected with gabapentin following surgery were the positive control group.
2.2 μg/kg of the compound was administered to the mice by intraplantar injection about 5 minutes prior to the injection of the acid solution. An hour after the injection of the acid, the hypersensitivity of the mice to mechanical stimuli was measured using von Frey filaments (Touch-Test North Coast Medical, Inc., Margan Hill, Calif.). The mice were placed in transparent plastic chambers (10×8×10 cm) on a metal mesh floor at least 30 minutes per day for 2 days to acclimatize them to the testing room prior to the test. 60 minutes after the mice were administered with the compound, the mechanical hyperalgesia was assessed through the measurement of paw withdrawal frequencies by a sequential series of von Frey filaments of weights 0.6, 1.0, 1.4, 2.0 and 4.0 g applied perpendicularly to the plantar surface of the paw. The paw was briefly stimulated with force sufficient to slightly bend the filaments and a single trial consisted of repeated applications of the von Frey filaments five times, each application lasting for about 5 seconds. The occurrence of paw withdrawal resulting from the stimulation or removing the stimulation for each trial was quantified as a percentage response frequency for each monofilament. When the frequency was more than 50%, the weight of the von Frey filaments was determined as the paw withdrawal threshold (PWT). To make sure all the mice were under normal physical conditions, all housing conditions complied with general feeding standards, and the temperature and illumination were maintained in a suitable range.
According to the method described by Bennett and Xie, Pain, 1988, 33, 87-107, 8 to 12-week-old CD-1 mice were subjected to chronic constriction injury (CCI) of the sciatic nerve, which is an animal model inducing chronic neuropathic pain. To anesthetize the mice, each of the mice was injected with 240 mg/kg of 2,2,2-tribromoethanol (Avertin). Then three ligatures were loosely tied around the sciatic nerve of the mouse with chromic gut. The surgical procedure for the Sham (non ligation) control group was identical to that mentioned above except that the sciatic nerves were not ligated. A week after the mice in the experimental (CCI+compound) group had chronic constriction injury of sciatic nerves, the compound was intraplantarly, intrathecally, or intraperitoneally injected into the mice. 60 minutes after the injection, the mice were directly subjected to the hypersensitivity test to mechanical stimuli. The mice under the surgery treated with saline were the CCI group; the mice treated with gabapentin were the positive control (CCI+Gabapentin) group.

mice = assay: Inflammatory pain: chronic inflammatory pain induced by Complete Freund's Adjuvant (CFA), von Frey test; type: in vivo; conditions: 60 min after CFA
Procedure: When 50% CFA was intraplantarly injected into the mouse, paw edema and chronic mechanical hyperalgesia were developed in the tested mice. Different dosages of the anthra[2,1-c][1,2,5]thiadiazole-6,11-dione compound, 0.22, 2.2, 22 μg/kg were intraplantarly injected into mouse hindpaw, followed by 50% CFA injection. At 60 minutes after the CFA injection, the pain sensitivity of the mice was measured by mechanical stimulation using von Frey filaments.
as §1, with “monofilament. When the frequency was more than 50%, the weight of the von Frey filaments was determined as the paw withdrawal threshold (PWT).” for “monofilament.”

human cancer cell lines = conditions: NCI panel (leukemia, non-small cell lung cancer, colon cancer, etc.); Taiwan Patent application 097112087; cited from earlier work

SMILES | paw withdrawal threshold (PWT) (CD-1 mice [1]; 2.2 μg/kg intraplantar, 5 min before 25 μL pH 5.0 acid solution, measured about 60 min later, acid only 1.1±0.065 g, control 4.0±0 g) [g] | paw withdrawal threshold (PWT) (CD-1 mice [1]; sole injection of the compound without the acid solution, did not induce pain) [g] | development of tolerance to the compound (CD-1 mice [2]; 2.2 μg/kg intraplantar once every week for three weeks) | paw withdrawal threshold (PWT) (CD-1 mice [2]; 2.2 μg/kg intraplantar once every week for three weeks, first week) [g] | paw withdrawal threshold (PWT) (CD-1 mice [2]; 2.2 μg/kg intraplantar once every week for three weeks, second week) [g] | paw withdrawal threshold (PWT) (CD-1 mice [2]; 2.2 μg/kg intraplantar once every week for three weeks, third week) [g] | paw withdrawal threshold (PWT) (CD-1 mice [2]; 2.2 μg/kg intraplantar, one week after CCI surgery, 60 min after injection, CCI only 0.9±0.23 g, control 3.6±0.29 g) [g] | paw withdrawal threshold (PWT) (CD-1 mice [2]; 2.2 μg/kg intrathecal, one week after CCI surgery, 60 min after injection) [g] | paw withdrawal threshold (PWT) (CD-1 mice [2]; 22 μg/kg intraplantar, one week after CCI surgery, 60 min after injection) [g] | inhibition of mechanical hyperalgesia induced by CCI of the sciatic nerve (CD-1 mice [2]; 44 μg/kg intraperitoneal) | paw withdrawal threshold (PWT) (mice; 2.2 μg/kg intraplantar 5 min before 50% CFA, CFA only 0.4±0.033 g, control 3.6±0.202 g) [g] | paw withdrawal threshold (PWT) (mice; 22 μg/kg intraplantar 5 min before 50% CFA) [g] | anti-proliferative activity against human cancer cell lines (human cancer cell lines) | dosage required to inhibit chronic mechanical hyperalgesia caused by CCI (CD-1 mice [2]; intraperitoneal injection)
O=C1c2ccccc2C(=O)c2c1ccc1nsnc21 [B1, Anthra[2,1-c][1,2,5]thiadiazole-6,11-dione] | 3.3 ± 0.67 | 4.0 ± 0 | no obvious indication that the mice developed tolerance | 2.5 ± 0.8 | 2.0 ± 0 | 2.7 ± 0.67 | 2.5 ± 0.8 | 4.0 | 4.0 ± 0.0 | completely inhibited mechanical hyperalgesia | 1.6 ± 0.15 | 3.0 ± 0.45 | shows anti-proliferative activity against human cancer cell lines | –
NCC1(CC(=O)O)CCCCC1 [gabapentin, reference compound] | – | – | – | – | – | – | – | – | – | – | – | – | – | at least 15,000 μg/kg
